Experimental data: US5023257A, “Intramuscular injection forms of gyrase inhibitors” (Bayer Aktiengesellschaft, priority 1988, dated 1991)

Experiment: release of the active compound from intramuscular suspensions
Details: oily suspensions, water-soluble form (hydrochlorides, lactates, mesilates and other salts), particularly with interfacially surface active materials

O=C(O)c1cn(C2CC2)c2cc(N3CCNCC3)c(F)cc2c1=O [ciprofloxacin]
release of the active compound: very rapidly
